Tests used:
Interleukin-1α = assay: Inhibition of the synthesis of Interleukin 1 (IL1α) induced by LPS in mice, serum ELISA; format: in vivo, BALB/C mice
Experimental: Study of the immunosuppressive activity of the derivative compound 4 on the inhibition of the synthesis of Interleukin 1 "IL1" in mice.
The secretion of IL1 is induced by the parenteral administration of lipopolysaccharides "LPS" to BALB/C mice.
Compound 4 (P-IV) is dissolved in physiological saline. It is assayed quantitatively by spectrophotometry at 280 nm (assay of Tryptophan) which allows an accurate assay of "P-IV" in the solutions which are stored at -25° C.
Extracts of Escherichia Coli serotype 0127 - B8 -"Ref. SIGMA - L3137" are used at the concentration of 6 mg/ml in physiological saline.
BALB/C mice--females--5 weeks old, obtained from IFFA - CREDO subjected to a photoperiod of 12 hours of light per 24 hours water and feed ad libitum
the other based on a single treatment, consequently much more rapid, will serve for the control of the PIV activity ("DAYNES" technique).
The animals in the control batches receive an injection of 0.2 ml of physiological saline subcutaneously, the animals in the PIV batches receive an injection of the product at various dosages subcutaneously. This treatment takes place for 5 days.
Forty-eight hours after the treatment with PIV, a sublethal dose of LPS (1.2 mg in 0.2 ml of physiological saline) is injected intraperitoneally into each animal in the PIV batches and in the positive control batch.
One hundred and eighty minutes later, all the mice were punctured through the retroorbital sinuses on dry tubes. As soon as the blood coagulates, the clot is detached. The blood is centrifuged for 10 minutes at 1800 g at a temperature of 10° C.
(§1) 40 μg of PIV in 0.2 ml of physiological saline--that is to say 200 μg/ml
25 Ag of PIV in 0.2 ml of physiological saline--that is to say 125 μg/ml
(§2) 10 μg of PIV in 0.2 ml of physiological saline--that is to say 50 μg/ml
The animals in the control batches receive an injection of 0.2 ml of physiological saline intravenously.
The animals in the PIV batches receive an injection of the product at various dosages intravenously. (Caudal vein)
Immediately afterwards, a sublethal dose of LPS (1.2 mg years [sic] 0.2 ml of physiological saline) is injected intraperitoneally into each animal in the PIV batches and into the positive control batches.
One hundred and eighty minutes later, all the mice are punctured through the retroorbital sinuses on dry tubes. As soon as the blood coagulates, the clot is detached. The blood is centrifuged for 10 minutes at 1800 g at a temperature of 10° C. The sera once collected are frozen at -25° C.
The Interleukin-1α contained in these sera is assayed 24 hours after the sampling with the murine IL1α ELISA assay Kit (ref. 1900 GENZYME)
(§3) Rapid description of the Kit: the method used for this assay is of the sandwich type.
A first anti-murine IL1α monoclonal antibody is used
The samples are then deposited, then a second biotinylated anti-IL1α antibody is caused to react.
The coloured reaction uses tetramethylbenzidine (TMB)
The reading is made at 450 nm on a MULTISKAN MCC 340 MKII (TITERTEK) plate reader.

[1] = system: PGE2 production by MRC5 fibroblasts stimulated by IL1; assay: PGE2 production by fibroblasts stimulated by IL1 (RIA); format: cell-based, human; details: for % inhibition (PGE2) / PGE2: IL1:5 ng
Experimental: 2-1 Culture of embryonic pulmonary fibroplasts [sic] of human origin:
We chose to use the strain ATCC MRC5 maintained in the laboratory continuously and already tested by Cannon et al. (J. Immunol., 1986).
After subculturing, the fibroplasts [sic] are cultured in microwells (24-well plate of 2 cm2, Falcon). The innoculum is 30 000 cells per well; the nutrient medium used is composed of RPMI 1640 (90%) and of complement-free fetal calf serum (FCS, 10%). The medium is changed every two days until the cells become confluent.
The monocell layers thus obtained are washed and preincubated for 24 hours in fresh medium containing only 1% of FCS. […] After incubating for 20 minutes in the presence of these compounds, human recombinant IL1 (Tebu, France) at a concentration of 5, 2.5 or 0.5 ng/ml of medium is placed in contact with cells for 18 hours.
At the end of this incubation, the supernatants are collected and frozen at -80° C. until the analysis is carried out. The monocell layers are fixed with methanol.
The RIA assay is carried out according to the method described by Dray et al. (Europ. J. Invest. 1975). 3 series of experiments, in duplicate, were carried out for each concentration of product studied and for the controls. The results are expressed in pg/μg of DNA. The inhibitory effect is expressed in percentage relative to the controls.
In order to avoid any possible error due to the counting by optical microscopy, the DNA was assayed by a fluorimetric method according to the procedure described by Brunk et al. (Analytical Biochem., 1979).

TNF-α = assay: Inhibition of TNF-α induced by LPS in mice (DAYNES technique), serum ELISA; format: in vivo
Experimental: This anti-inflammatory activity was complemented by a study of the immunosuppressive activity of PIV against Tumor Necrosis Factor-α.
Inhibition of the activity of TNF-α by the Peptide PIV
The DAYNES techniques described in Example 8 are used.
as §1
25 μg of PIV in 0.2 ml of physiological saline--that is to say 125 μg/ml
as §2
It was carried out on mice separated into 5 batches of 5 animals
The animals in the control batches receive an injection of 0.2 ml of physiological saline intravenously. The animals in the PIV batches receive an injection of the product at various dosages intravenously. (Caudal vein)
Immediately after the treatment of the mice, a sublethal dose of LPS (1.2 mg in 0.2 ml of physiological saline) is intraperitoneally injected into each animal in the batches and positive control.
Ninety minutes later, all the mice are punctured through the retroorbital sinuses on dry tubes. As soon as the blood coagulates, the clot is detached. The blood is centrifuged for 10 minutes at 10° C. at 1800 g.
The sera once collected are frozen at -25° C.
The TNF-α contained in these sera is assayed 24 hours after the sampling with the murine TNF-α ELISA assay Kit (ref. 1509-00 GENZYME)
as §3
A first anti-murine TNF-A monoclonal antibody is used.
The samples are then deposited and then a second anti-TNF-α goat antibody is caused to react.
The colored reaction uses o-phenylenediamine (OPD).
The reading is made at 492 nm with a plate reader (TITERTEK MKII MCC 340)

[2] = all dosages, all the five studies

For “[(DL) Lip] His - D.homoPhe - Arg - Trp - NH2 [PIV]”, the “mean decreases in IL1α” value (Interleukin-1α; 50 μg/ml, five studies) was 50%, the “mean decreases in IL1α” value (Interleukin-1α; 125 μg/ml, five studies) was 50% and the “mean decreases in IL1α” value (Interleukin-1α; 200 μg/ml, five studies) was 60%. The “mean decreases in IL1α” value (Interleukin-1α; [2]) was about 55%, the “decrease in the synthesis of Interleukin-1α relative to the control” value (Interleukin-1α; with the two methodologies used (SHEEHAN and DAYNES)) was “at least 50%” and the “% inhibition (PGE2)” value ([1]; 10^-4 M) was 60%. For the same substance, the PGE2 ([1]; 10^-4 M) was 2964 ± 184 pg/mg of DNA, the “% inhibition (PGE2)” value ([1]; 10^-5 M) was 38% and the PGE2 ([1]; 10^-5 M) was 4580 ± 230 pg/mg of DNA. For the same substance, the “% inhibition (PGE2)” value ([1]; 10^-6 M) was 34%, the PGE2 ([1]; 10^-6 M) was 4900 ± 340 pg/mg of DNA and the “% inhibition (PGE2)” value ([1]; 10^-7 M) was 17%. The PGE2 ([1]; 10^-7 M) was 6150 ± 365 pg/mg of DNA, the “% inhibition (PGE2)” value ([1]; 10^-8 M) was 17% and the PGE2 ([1]; 10^-8 M) was 6142 ± 255 pg/mg of DNA. For the same substance, the “% inhibition (PGE2)” value ([1]; 10^-9 M) was 32%, the PGE2 ([1]; 10^-9 M) was 5047 ± 279 pg/mg of DNA and the “inhibitory action on IL1-stimulated PGE2 production (in words)” value ([1]; overall) was “possess an inhibitory power”. For the same substance, the “mean decreases in TNF-α” value (TNF-α; 50 μg/ml, five studies) was 37%, the “mean decreases in TNF-α” value (TNF-α; 125 μg/ml, five studies) was 40% and the “mean decreases in TNF-α” value (TNF-α; 200 μg/ml, five studies) was 46%. The “mean decreases in TNF-α” value (TNF-α; [2]) was about 40% and the “immunosuppressive activity against Tumor Necrosis Factor-α” value (TNF-α; complementary study reported in Example 8) was -40%.
